Reference: paper PMC9154192 (PLoS Biology, 2022)
Values after ≈ are worked out from the molar mass of the structure shown.

Key:
Type in all cases: cell-based, Mycobacterium tuberculosis
[1] = tested on: PP2S-resistant M. tuberculosis
[2] = tested on: PP1S-resistant M. tuberculosis
M. tuberculosis H37Rv = conditions: at 200 μg/ml and above

SMILES | MIC [1] [µg/mL] | MIC [2] [µg/mL] | occurrence of resistant strains (M. tuberculosis H37Rv)
CC[C@@H](CO)NCCN[C@@H](CC)CO [EMB, ethambutol] | 1.6 (≈ 7.83 µM) | 1.6 (≈ 7.83 µM) | –
NNC(=O)c1ccncc1 [INH, isoniazid, reference compound] | 0.4 (≈ 2.92 µM) | 0.2 (≈ 1.46 µM) | –
COC(=O)[C@@H]1CCC(=O)N1Cc1cc2ccc(OC)cc2c2cc(OC)c(OC)cc12 [PP1S, (S)-N-[(2,3,6-Trimethoxy-10-phenanthryl)methyl]-pyroglutamic acid methyl ester] | > 100 | > 100 | –
CCCCOc1ccc2cc(CN3C(=O)CC[C@H]3C(=O)OC)c3cc(OC)c(OC)cc3c2c1 [PP2S, Methyl (S)-1-((3-butoxy-6,7-dimethoxyphenanthren-9-yl)methyl)-5-oxopyrrolidine-2-carboxylate] | > 100 | > 100 | did not occur directly
COC(=O)[C@@H]1CCC(=O)N1Cc1cc2ccc(OCc3ccccc3)cc2c2cc(OC)c(OC)cc12 [PP3S, Methyl (S)-1-{[3-(Benzyloxy)-6,7-dimethoxy-9-phenanthryl]methyl}-5-oxopyrrolidine-2-carboxylate] | > 100 | > 100 | –
NC(=O)c1cnccn1 [PZA, pyrazinamide] | > 100 | > 100 | –
CO[C@H]1/C=C/O[C@@]2(C)Oc3c(C)c(O)c4c(O)c(c(/C=N/N5CCN(C)CC5)c(O)c4c3C2=O)NC(=O)/C(C)=C\C=C\[C@H](C)[C@H](O)[C@@H](C)[C@@H](O)[C@@H](C)[C@H](OC(C)=O)[C@@H]1C [RIF, rifampicin, reference compound] | 0.2 (≈ 0.243 µM) | 0.1 (≈ 0.122 µM) | –
[H]/N=C(/N)N[C@H]1[C@H](O)[C@@H](O)[C@H](O[C@@H]2O[C@@H](C)[C@](O)(C=O)[C@H]2O[C@@H]2O[C@@H](CO)[C@H](O)[C@@H](O)[C@@H]2NC)[C@@H](N/C(N)=N\[H])[C@@H]1O [STR, streptomycin] | 0.4 (≈ 0.688 µM) | 0.2 (≈ 0.344 µM) | –
